ChEMBL document CHEMBL3885881, “DrugMatrix”

Species: Rattus norvegicus
Assay: DrugMatrix - Regimen: Daily Repeat
Type: toxicity, organism-based, Sprague-Dawley
Parameters: regimen Daily Repeat, gender Male, age 6-8 weeks
Conditions: in vivo, po, route oral GAVAGE, vehicle .5 % CMC; for ABSOLUTE BASOPHIL / ABSOLUTE EOSINOPHIL / ABSOLUTE LYMPHOCYTE / ABSOLUTE MONOCYTE / ABSOLUTE SEGMENTED NEUTROPHIL / BASOPHIL / EOSINOPHIL / ERYTHROCYTE COUNT / HEMATOCRIT / HEMOGLOBIN / LEUKOCYTE COUNT / LYMPHOCYTE / MEAN CORPUSCULAR HEMOGLOBIN / MEAN CORPUSCULAR HEMOGLOBIN CONCENTRATION / MEAN CORPUSCULAR VOLUME / MONOCYTE / NEUTROPHIL / NUCLEATED RED BLOOD CELLS / PLATELET COUNT: tissue Blood; for ALANINE AMINOTRANSFERASE / ALBUMIN / ALKALINE PHOSPHATASE / ASPARTATE AMINOTRANSFERASE / BLOOD UREA NITROGEN / CARBON DIOXIDE / CHLORIDE / CHOLESTEROL / CREATINE PHOSPHOKINASE / CREATININE / GLUCOSE / LACTATE DEHYDROGENASE / LIPASE / PHOSPHORUS / POTASSIUM / SODIUM / TOTAL BILIRUBIN / TOTAL PROTEIN / URIC ACID: tissue Plasma
[1] = 0 mg/kg, 72 h, dose level Control, time 3 day
[2] = 0 mg/kg, 120 h, dose level Control, time 5 day
[3] = 10 mg/kg, 72 h, dose level Low, time 3 day

COc1c(C)c2c(c(O)c1C/C=C(\C)CCC(=O)OCCN1CCOCC1)C(=O)OC2 [MYCOPHENOLATE MOFETIL]
ABSOLUTE BASOPHIL [1]: 0 CELLS/uL | ABSOLUTE EOSINOPHIL [1]: 0 CELLS/uL | ABSOLUTE LYMPHOCYTE [1]: 12191.17 CELLS/uL | ABSOLUTE MONOCYTE [1]: 183.17 CELLS/uL | ABSOLUTE SEGMENTED NEUTROPHIL [1]: 1192.33 CELLS/uL | BASOPHIL [1]: 0% | EOSINOPHIL [1]: 0% | ERYTHROCYTE COUNT [1]: 5.51 x10E6/uL | HEMATOCRIT [1]: 35.45% | HEMOGLOBIN [1]: 13.82 G/DL | LEUKOCYTE COUNT [1]: 13.57 x10E3/uL | LYMPHOCYTE [1]: 89.83% | MEAN CORPUSCULAR HEMOGLOBIN [1]: 25.1 pg | MEAN CORPUSCULAR HEMOGLOBIN CONCENTRATION [1]: 38.98 G/DL | MEAN CORPUSCULAR VOLUME [1]: 64.42 fL | MONOCYTE [1]: 1.33% | NEUTROPHIL [1]: 8.83% | NUCLEATED RED BLOOD CELLS [1]: 0 /100WBC | PLATELET COUNT [1]: 1118.17 x10E3/uL | ALANINE AMINOTRANSFERASE [1]: 55 u/L | ALBUMIN [1]: 4.15 G/DL | ALKALINE PHOSPHATASE [1]: 449.5 u/L | ASPARTATE AMINOTRANSFERASE [1]: 112.83 u/L | BLOOD UREA NITROGEN [1]: 17.33 mg/dL | CARBON DIOXIDE [1]: 29.5 mmol/L | CHLORIDE [1]: 101 MEQ/L | CHOLESTEROL [1]: 70 mg/dL | CREATINE PHOSPHOKINASE [1]: 1325.83 u/L | CREATININE [1]: 0.18 mg/dL | GLUCOSE [1]: 171.5 mg/dL | LACTATE DEHYDROGENASE [1]: 386 u/L | LIPASE [1]: 10 u/L | PHOSPHORUS [1]: 11.57 mg/dL | POTASSIUM [1]: 6.21 MEQ/L | SODIUM [1]: 141.65 MEQ/L | TOTAL BILIRUBIN [1]: 0.15 mg/dL | TOTAL PROTEIN [1]: 5.75 G/DL | URIC ACID [1]: 1.28 mg/dL | ABSOLUTE BASOPHIL [2]: 0 CELLS/uL | ABSOLUTE EOSINOPHIL [2]: 138.17 CELLS/uL | ABSOLUTE LYMPHOCYTE [2]: 13283.17 CELLS/uL | ABSOLUTE MONOCYTE [2]: 303.83 CELLS/uL | ABSOLUTE SEGMENTED NEUTROPHIL [2]: 1308.17 CELLS/uL | BASOPHIL [2]: 0% | EOSINOPHIL [2]: 1% | ERYTHROCYTE COUNT [2]: 5.32 x10E6/uL | HEMATOCRIT [2]: 33.8% | HEMOGLOBIN [2]: 13.63 G/DL | LEUKOCYTE COUNT [2]: 15.03 x10E3/uL | LYMPHOCYTE [2]: 88.33% | MEAN CORPUSCULAR HEMOGLOBIN [2]: 25.68 pg | MEAN CORPUSCULAR HEMOGLOBIN CONCENTRATION [2]: 40.35 G/DL | MEAN CORPUSCULAR VOLUME [2]: 63.67 fL | MONOCYTE [2]: 1.83% | NEUTROPHIL [2]: 8.83% | NUCLEATED RED BLOOD CELLS [2]: 0 /100WBC | PLATELET COUNT [2]: 1097.5 x10E3/uL | ALANINE AMINOTRANSFERASE [2]: 54.5 u/L | ALBUMIN [2]: 4.27 G/DL | ALKALINE PHOSPHATASE [2]: 337 u/L | ASPARTATE AMINOTRANSFERASE [2]: 94.67 u/L | BLOOD UREA NITROGEN [2]: 17 mg/dL | CARBON DIOXIDE [2]: 28.33 mmol/L | CHLORIDE [2]: 101.5 MEQ/L | CHOLESTEROL [2]: 71.33 mg/dL | CREATINE PHOSPHOKINASE [2]: 628.17 u/L | CREATININE [2]: 0.19 mg/dL | GLUCOSE [2]: 177.83 mg/dL | LACTATE DEHYDROGENASE [2]: 500.5 u/L | LIPASE [2]: 9.5 u/L | PHOSPHORUS [2]: 12.3 mg/dL | POTASSIUM [2]: 5.63 MEQ/L | SODIUM [2]: 143.03 MEQ/L | TOTAL BILIRUBIN [2]: 0.2 mg/dL | TOTAL PROTEIN [2]: 6.02 G/DL | URIC ACID [2]: 1.5 mg/dL | ABSOLUTE BASOPHIL [3]: 0 CELLS/uL | ABSOLUTE EOSINOPHIL [3]: 76.67 CELLS/uL | ABSOLUTE LYMPHOCYTE [3]: 12148 CELLS/uL | ABSOLUTE MONOCYTE [3]: 38.33 CELLS/uL | ABSOLUTE SEGMENTED NEUTROPHIL [3]: 870.33 CELLS/uL | BASOPHIL [3]: 0% | EOSINOPHIL [3]: 0.67% | ERYTHROCYTE COUNT [3]: 5.1 x10E6/uL | HEMATOCRIT [3]: 32.07% | HEMOGLOBIN [3]: 13.3 G/DL | LEUKOCYTE COUNT [3]: 13.13 x10E3/uL | LYMPHOCYTE [3]: 92% | MEAN CORPUSCULAR HEMOGLOBIN [3]: 26.1 pg | MEAN CORPUSCULAR HEMOGLOBIN CONCENTRATION [3]: 41.47 G/DL | MEAN CORPUSCULAR VOLUME [3]: 62.87 fL | MONOCYTE [3]: 0.33% | NEUTROPHIL [3]: 7% | NUCLEATED RED BLOOD CELLS [3]: 0 /100WBC | PLATELET COUNT [3]: 1283 x10E3/uL | ALANINE AMINOTRANSFERASE [3]: 58 u/L | ALBUMIN [3]: 4.13 G/DL | ALKALINE PHOSPHATASE [3]: 363.33 u/L | ASPARTATE AMINOTRANSFERASE [3]: 110.33 u/L | BLOOD UREA NITROGEN [3]: 16.33 mg/dL | CARBON DIOXIDE [3]: 26.33 mmol/L | CHLORIDE [3]: 102.67 MEQ/L | CHOLESTEROL [3]: 70.67 mg/dL | CREATINE PHOSPHOKINASE [3]: 1302.67 u/L | CREATININE [3]: 0.14 mg/dL | GLUCOSE [3]: 164 mg/dL | LACTATE DEHYDROGENASE [3]: 334.67 u/L | LIPASE [3]: 9.67 u/L | PHOSPHORUS [3]: 13.07 mg/dL | POTASSIUM [3]: 5.93 MEQ/L | SODIUM [3]: 144.23 MEQ/L | TOTAL BILIRUBIN [3]: 0.1 mg/dL | TOTAL PROTEIN [3]: 5.53 G/DL | URIC ACID [3]: 1.57 mg/dL
